The data set in a line: Solubility of the furylphosphine in water.

Structures are written as SMILES.

`O=S([O-])c1ccc(P(c2ccccc2)c2ccccc2)o1.[Na+]` [Example 4, sodium 2-(diphenylphosphino)furan-5-sulphinate]: the solubility (commonly the concentration that dissolves in the medium under given conditions) (21 °C) came to 205 mg/mL.

Take `O=P([O-])([O-])c1ccc(P(c2ccccc2)c2ccccc2)o1.[Na+].[Na+]` [Example 2, disodium 2-(diphenylphosphino)furan-5-phosphonate]: under “20 °C”, the solubility worked out at 680 mg/mL.

Regarding `O=P(O)(O)c1ccc(P(c2ccccc2)c2ccc(P(=O)(O)O)o2)o1` [Example 3, tetrasodium 2,2′-phenylphosphine-diylbis(furan-5-phosphonate)], the solubility (23 °C) is 1140 mg/mL.

With `O=C([O-])c1ccc(P(c2ccccc2)c2ccccc2)o1.[Na+]` [Example 1, sodium 2-(diphenylphosphino)furan-5-carboxylate], the solubility (23 °C) stood at 250 mg/mL.

The values are drawn from patent US6417375B1, “Furylphosphines and organometallic complexes containing them” (Rhodia Fiber & Resin Intermediates, priority 1998, dated 2002).
